A short description of data set [1]: Bubble cell test, corrosion rate by linear polarization resistance (LPR). The settings on record: 66° C.; for % Protection: 10 ppm CI composition (2 ppm active) with 0.5 ppm 2-mercaptoethanol, versus avg. blank corrosion rate, 22 hour; for Corrosion rate after 22 hour CI injection: 10 ppm CI composition (20% active = 2 ppm active) with 0.5 ppm 2-mercaptoethanol, CO2-saturated synthetic brine 80% / LVT-200 20%, 100 rpm. The method, then: Examples were conducted to assess the corrosion inhibitors produced in Example 1 using bubble cell tests to assess corrosion performance using linear polarization resistance testing. The corrosion inhibitor was combined with the sulfur synergist 2-mercaptoethanol.
The bubble test simulates low flow areas where little or no mixing of water and oil occurs. The test was conducted using synthetic brine (80% of the brine and 20% of a hydrocarbon containing LVT-200) as shown in Table 1.
The brine was placed into kettles and purged with carbon dioxide resulting in carbon dioxide saturated brine. The brine was continually purged with carbon dioxide at 1 bar CO2 to saturate the brine prior to starting the test for a 2 hour pre-corrode. After the test began, the test cell was blanketed with carbon dioxide one hour prior to electrode insertion and through the duration of the test to maintain saturation. The kettles were stirred at 100 revolutions per minute (rpm) for the duration of the test at 66° C.
The corrosion rate was measured by Linear Polarization Resistance (LPR) techniques. The working electrode used was carbon steel (C1018 grade). The counter and reference electrodes were both 1018 carbon steel. The electrodes were all cleaned and polished prior to testing. Data were collected for 2 hours before 10 ppm of the corrosion inhibitor composition (containing 20% of the reaction product corrosion inhibitor) was added to the hydrocarbon phase, equating to 2 ppm of the active reaction product corrosion inhibitor with 0.5 ppm 2-mercaptoethanol being introduced into the test cell. Data were collected overnight for 22 hour test duration.

Data set [2] in a line: Partitioning test, brine/oil, LC-MS analysis. It is filed as physicochemical. The note with it: 50 ppm dosed into oil layer; 50 mL synthetic brine, 25 mL aromatic 150, 25 mL LVT 200; room temperature; 1 hour rest. The method, then: Additional comparison testing was conducted on the alkyl diquaternary compound corrosion inhibitor of Example 1 (corrosion inhibitor VIa) compared to as conventional quaternary ammonium compounds. Partitioning tests were conducted of the corrosion inhibitor (VIa) and a quaternary ammonium compound (trimethylstearyl benzyl chloride quat) to determine the partitioning coefficient via LC-MS (Liquid Chromatography-Mass Spectroscopy) analysis.
At room temperature, 50 mL of the synthetic brine of Table 1, 25 mL of aromatic 150, and 25 mL of LVT 200 were pipetted into a 125-mL separational funnel. 50 ppm of the corrosion inhibitor (VIa) or trimethylstearyl benzyl chloride quat were dosed into the oil layer of the funnel. The cap was inserted into the funnel and the mixture was shaken vigorously for one minute and then set for an hour. After the hour rest, the bottom layer (brine layer) was drained and collected for LC-MS analysis. LC-MS analysis determines the amount of the corrosion inhibitor (VIa) and trimethylstearyl benzyl chloride quat that partitioned into the brine phase. The amount found in the brine phase was compared to the original amount introduced into the oil phase of the brine/oil solution (50 ppm) and a percentage amount is calculated. The percent amount of the corrosion inhibitor (VIa) and trimethylstearyl benzyl chloride quat present in the brine phase is shown in Table 4.

Consider alkyl dimethyl benzyl chloride quat, for which, in data set [1], the “% Protection” value amounted to 99.3% and the “Corrosion rate after 22 hour CI injection” value is reported as 1.4 mpy.
For the compound `CCCCCCCCCCCCCCCCCC[N+](C)(C)CC(O)C[N+](CCO)(CCO)CCO` (stereo not drawn) [VIa], in data set [1], the “% Protection” value is 99.3% and the “Corrosion rate after 22 hour CI injection” value was found to be 1.5 mpy. Moreover, in data set [2], the “% Partitioning to brine phase” value came to 84.1%.
As for trimethylstearyl benzyl chloride quat, the “% Partitioning to brine phase” value in data set [2] came out at 28.4%.
